# Reference: patent US20190231847A1, “TREATMENT OF OCULAR DISEASE” (priority 2016, published 2019)
# Tests used:
# [1] = test system: neovascularisation and inflammation in the injured cornea; experiment: ALM201 concentration titration in rat corneal suture model, clinical scoring, Example 4; format: in vivo; conditions: for Vessel density, clinical score compared to PBS control group / Inflammation scoring in comparison to PBS treated group: scored day 7
# Description: Each rat was anesthetised and two 10-0 sutures were placed intrastromally into the temporal cornea of the left eye, 1.5 mm from the limbus. The sutures were left in place for the entirety of the experiment. The right eye was kept as a no suture control but given the same treatment as the left eye. Treatment began approx. 24 hours after suture placement and continued once a day for 6 days.
# (§1) Approximately 24 hours after the last treatment the eyes were imaged and clinically scored. The sutured eyes were scored based on vessel density, vessels distance to suture and inflammation. Vessel density was scored out of three, 0=no density, 1=mild, 2=moderate, 3=high. Vessels distance to suture was scored out of four, 0=no reach, 1=small distance, 2=moderate distance, 3=¾ of the way, 4=reached sutures and inflammation was scored out of three, 0=none, 1=minimal, 2=moderate, 3=severe. After clinical scoring the eyes were enucleated, tissue processed, wax embedded and cut into 5 μm sections while taking care to find the sutured area. Sections were stained with haematoxylin and eosin (H&E) to confirm suture location in each eye and adjacent slides were then used for immunohistochemistry to identify CD44+ cells and FKBPL expression as well NFκB and p-IκBα.
# [2] = mouse, in vivo, ip, 0.3 mg/kg
# Source text: Bodyweight (BW) of each mouse was monitored daily during the course of treatment.
# [3] = test system: p-IκBα; experiment: Immunohistochemistry of p-IκBα expression in rat cornea; format: in vivo; conditions: 1 μM ALM201
# Description: as §1
# (§2) NFκB and phosphorylated-IκBα antibodies were also used in this experiment to see if ALM201 affected the NFκB pathway. Nuclear factor kappa-light-chain-enhancer of B cells or NFκB is a transcription factor which is involved in several processes including inflammation, B cell development, apoptosis, immune regulation and cell proliferation. There are 5 different NFκB heterodimers in the NFκB family, depending on which heterodimer is activated they can activate or repress the transcription of the above process. […]
# [4] = test system: NFκB; experiment: Immunohistochemical analysis of free NFκB expression in rat cornea; format: in vivo; conditions: 1 μM ALM201
# Description: as §1, §2
# [5] = test system: FKBPL; experiment: Immunohistochemistry of FKBPL in rat cornea; format: in vivo; conditions: 1 μM ALM201
# Description: as §1
# (§3) Sections (5 μm) were stained with haematoxylin and eosin (H&E) to confirm suture location in each eye. Adjacent slides were then used for immunohistochemistry to identify, CD44+ cells and FKBPL expression.
# [6] = test system: retinal inflammation; experiment: Mouse experimental autoimmune uveitis (EAU) model, clinical score from fundus images (TEFI); conditions: for Difference between day 14 p.i. and day 24 p.i. (clinical score): paired Student's t test
# Description: The effect of ALM201 on autoimmune uveitis was tested in a mouse model of experimental autoimmune uveitis (EAU).
# All mice were maintained in a normal experimental room and exposed to a 12-hour-dark-12-hour light cycle.
# An additional 1 mg Bordetella pertussis toxin (Tocris Bioscience, Bristol, UK) was administered intraperitoneally immediately after peptide injection.
# Mouse pupils were dilated with 1% atropine sulphate and 2.5% phenylephrine hydrochloride (Chauvin, Essex, UK). The animals were anaesthetised by isofluorane. […] Clinical score of retinal inflammation was accessed using the criteria described previously by us (Xu et al. 2008a).
# Ten mice were assigned into each group.
# All animals were treated for 10 days from day 14 to 24 p.i.
# Group 2: ALM201 0.3 mg/kg in 100 ml, i.p. injection, once daily.
# Group 3: ALM201 3 mg/kg in 100 ml, i.p. injection, once daily.
# Group 4: Dexamethasone 0.5 mg/kg in 100 ml, p.o. (gavage), once daily.
# Group 5: ALM201 0.3 mg/kg in 100 ml, i.p. injection+Dexamethasone 0.5 mg/kg in 100 ml, p.o. (gavage) once daily.
# Data (Clinical score and histological score) was expressed as mean±SD. One way ANOVA followed by the Tukey's Multiple Comparison Test was used to detect difference between all treatment groups. In addition, Mann-Whitney U test (two tails) was used to detect the difference between ALM201 or dexamethasone treated group and PBS control group. Paired Student's t test was used to compare clinical score before and after treatment.
# [7] = test system: retinal inflammation; experiment: Mouse EAU model, histopathology (H&E) and histological score; format: in vivo, C57BL/6J mice
# Source text: On day 24 p.i., fundus images were taken from all experimental mice using the TEFI system. Mice were then sacrificed by CO2 inhalation and eyes were carefully removed. All eyes were fixed in 2.5% (w/v) glutaraldehyde (Agar Scientific Ltd, Cambridge, UK) for 2 days at room temperature. Eyes were embedded in paraffin for standard H&E staining. Histological scores of retinal inflammation were graded using a standard scoring system described previously (Dick A. D., Cheng Y. F., Liversidge J., Forrester J. V., 1994. Immunomodulation of experimental autoimmune uveoretinitis: a model of tolerance induction with retinal antigens. Eye 8 (Pt 1), 52-59, incorporated herein by reference). Retinal sections from at least three different layers from each eye were used for histopathological analysis. The average score from three layers was used as the final pathological score of the eye.
# [8] = test system: CD44; experiment: Immunohistochemistry staining for CD44 in rat cornea; format: in vivo; conditions: sutured corneas, 1 μM ALM201
# Description: as §1, §3
# [9] = test system: cell infiltrate, corneal swelling and blood vessels; experiment: H&E staining of sutured rat corneas, Example 4; format: in vivo
# Description: as §1, §3
# [10] = once a day for 6 days, ALM201 100 μM
# [11] = ALM201 0.3 mg/kg i.p. once daily day 14-24 p.i., 10 mice
# [12] = ALM201 3 mg/kg i.p. once daily day 14-24 p.i., 10 mice
# [13] = ALM201 0.3 mg/kg, after 10 days therapy
sequence,measurement,setting,value
IRQQPRDPPTETLELEVSPDPAS (listed as Homo Sapiens) [ALM201],Inflammation and vessel density scores compared with dexamethasone,[1]; ALM201 100 μM,significant difference in scores
same,"Vessel density, clinical score compared to PBS control group","[1]; once a day for 6 days, ALM201 1 μM, dexamethasone positive control",significant decrease
same,"Vessel density, clinical score compared to PBS control group","[1]; once a day for 6 days, ALM201 10 μM",significant decrease
same,Inflammation scoring in comparison to PBS treated group,"[1]; once a day for 6 days, ALM201 10 μM, dexamethasone positive control",significant difference
same,Inflammation scoring in comparison to PBS treated group,[1]; [10],significant difference
same,"Vessel density, clinical score compared to PBS control group",[1]; [10],significant decrease
same,"Vessel distance to sutures, clinical score compared to PBS vehicle control","[1]; once a day for 6 days, scored day 7 after suture, ALM201 1 μM, dexamethasone positive control",significantly different
same,Most effective concentrations in preventing angiogenesis and inflammation,[1]; titration 0.01 μM to 100 μM,1 µM and 10 µM
same,Bodyweight during the 10-day treatment period,[2],stable BW
same,p-IκBα expression compared to PBS treated sutured corneas,[3]; sutured corneas,reduced
same,p-IκBα expression,[3]; unsutured corneas,no expression of p-IκBα
same,NFκB expression compared to PBS control sutured corneas,[4]; sutured corneas,reduction in NFκB expression in the stroma
same,Pattern of NFκB expression,[4]; unsutured corneas,no effect
same,FKBPL expression in the corneal epithelium and stroma in comparison with PBS treated sutured corneas and normal corneas,[5],increased
same,Mice in which progression was prevented or inflammation reduced,[6]; ALM201 0.3 mg/kg,20%
same,Mice with decreased level of EAU progression,[6]; ALM201 0.3 mg/kg,80%
same,No. of mice with decreased score (%),[6]; [11],(10%)
same,No. of mice with increased score,[6]; [11],8
same,No. of mice with increased score (%),[6]; [11],(80%)
same,No. of mice with no change (%),[6]; [11],(10%)
same,Difference between day 14 p.i. and day 24 p.i. (clinical score),"[6]; ALM201 0.3 mg/kg i.p., 0.3 mg/kg",did not significant change and No
same,Retinal infiltrates in fundus images compared to PBS treated EAU mice,"[6]; ALM201 0.3 mg/kg, day 24 p.i.",the number of infiltrates was fewer
same,"Average increment in clinical score, day 14 to day 24 p.i.","[6]; ALM201 0.3 mg/kg, the 8 mice with increased score",0.68
same,No. of mice with decreased score,[6]; [12],3
same,No. of mice with increased score (%),[6]; [12],(40%)
same,No. of mice with no change,[6]; [12],3
same,Difference between day 14 p.i. and day 24 p.i. (clinical score),[6]; ALM201 3 mg/kg i.p.,No
same,"Average decrement in clinical score, day 14 to day 24 p.i.","[6]; ALM201 3 mg/kg, the 3 mice with decreased score",0.33
same,"Average increment in clinical score, day 14 to day 24 p.i.","[6]; ALM201 3 mg/kg, the four mice with increased score",0.82 point
same,Infiltrating cells in retinal histology,[7]; [13],Fewer infiltrating cells
same,Retinal structure compared to PBS treated mice,[7]; [13],retinal structure was better preserved
same,Retinal inflammation graded by standard histological scoring system (FIG. 8H),[7]; ALM201 0.3 and 3 mg/kg,dose-dependently suppressed retinal inflammation
same,CD44 expression compared to sutured PBS control,[8],decrease in CD44 expression
same,"Cell infiltrate, corneal swelling and blood vessels (H&E)",[9]; ALM201 0.01 μM to 10 μM,decreased as the ALM201 concentration was increased
same,Corneal swelling (H&E),[9]; ALM201 100 μM,more corneal swelling was observed
